Reference: paper PMC4496498, “Radiosynthesis, In Vivo Biological Evaluation, and Imaging of Brain Lesions with [^123I]-CLINME, a New SPECT Tracer for the Translocator Protein” (Disease Markers, 2015)
Values joined by “and” are separate entries in the source; they are usually repeats but may differ in a detail not shown here. Equal entries are not always repeated.

Assays:
TSPO [1] = target: T1, TSPO (Rattus norvegicus, UniProt P16257); settings: competing drug 1 mg/Kg i.v. 5 min prior to tracer, rats, 30 min p.i.
Method: The saturation effect of [^123I]-CLINME uptake was studied in competition experiments by injecting CLINME (1 mg/Kg), 5 min prior to [^123I]-CLINME (0.7 MBq, 10 pmoles in 0.1 mL of 0.9% saline), via the tail vein, to 8–10-week-old male SD rats.
The drugs were dissolved in dimethyl sulfoxide/saline (1 : 5) and injected intravenously 5 min prior to [^123I]-CLINME. Groups of rats (n = 3-4) were sacrificed by CO2 administration followed by cervical fracture 30 min after administration of [^123I]-CLINME and peripheral organs (liver, spleen, lung, heart, kidney, and adrenals), blood, olfactory bulbs, and the remainder of the brain were removed. The radioactivity concentrations were calculated as described previously. Results were analysed by one-way analysis of variance (ANOVA) followed by Tukey's post hoc test for comparing the tissue radioactivity concentrations in the treated animals (n = 3-4) and in the controls (n = 6). The criterion for significance was P < 0.05.

TSPO [2] = target: T1, TSPO; assay: SPECT imaging of unilateral excitotoxic (AMPA) striatum lesion; type: in vivo, SD rats; set-up: from tissue; host or cells: male Sprague-Dawley rats: peripheral organs and brain in vivo; AMPA-lesioned striatum; brain sections; settings: AMPA lesion rat model
Method: Lesioning was performed by stereotaxically injecting 7.5 nmol α-amino-3-hydroxy-5-methylisoxazole-4-propionic acid (AMPA) unilaterally into the striatum. Male SD rats (317 ± 56 g) were anaesthetised with inhaled isoflurane in O2 (5% induction, ~2% maintenance thereafter) and positioned in a stereotaxic frame (Stoelting Co., USA). A 1.5 cm incision was made in the scalp to reveal the skull surface and a burr hole was drilled over the injection site. […] Following the injection, the needle was left in situ for a further 5 min to allow the fluid to disperse. After the needle was withdrawn, the incision was sutured and cleansed. Animals were given a week to recover prior to imaging. Analgesia was provided by subcutaneous administration of 0.05 mg/Kg buprenorphine.
Two hours prior to [^123I]-CLINME administration, thyroid blocking was performed with an intraperitoneal injection of 2 mg/Kg potassium iodide. [^123I]-CLINME (74–148 MBq in 0.1 mL of 0.9% saline, S.A. > 80 GBq/μmol) was injected via the tail vein. […]
SPECT volumes were reconstructed with an Ordered Subset Expectation Maximisation iterative reconstruction algorithm using 3 iterations and 8 subsets. […] At each of the time points p.i., the ratio of the mean activity in the lesion VOI compared to the contralateral control VOI was determined. […]

[3] = Metabolite studies (radio-TLC of tissue and plasma extracts); type: in vivo, SD rats; settings: rats
Method: Groups of male SD rats were injected with [^123I]-CLINME (7.4 MBq in 0.1 mL of 0.9% saline) and sacrificed at 15, 60, and 180 min p.i. Adrenals, kidney, heart, and brain were quickly excised.
Tissue fractions (200 mg) were treated with acetonitrile (2 mL) and homogenised, and the mixture was centrifuged at 2,000 rpm. The supernatant was removed and the pellet was treated for a second time, as above and the combined supernatants concentrated to 50 μL. Plasma (0.2 mL) separated from blood was extracted with acetonitrile and concentrated. The concentrated extracts were applied onto silica gel C18 plates with a preconcentration zone (Merck, Darmstadt, Germany) and developed with ethyl acetate. The radioactivity distribution was measured using a static radiochromatogram analyser (Berthold Co.).

[4] = In vivo biodistribution of [^123I]-CLINME; set-up: species or system Sprague-Dawley (SD) rats; settings: for Biodistribution, Adrenals / Biodistribution, Blood / Biodistribution, Heart / Biodistribution, Kidney / Biodistribution, Liver / Biodistribution, Lungs / Biodistribution, Olfactory bulbs / Biodistribution, Spleen / Biodistribution, Thyroid / Biodistribution, Brain: SD male rats, i.v.; for Biodistribution, Brain: remainder of the brain
Method: No carrier added [^123I]-CLINME (0.7 MBq, 10 pmoles) dissolved in 0.9% saline (0.1 mL) was administered to 8–10-week-old male Sprague-Dawley (SD) rats (n = 4–6) via tail vein injection in a volume of 0.1 mL. At 5, 15, and 30 min and 1, 3, and 6 h after injection (p.i.) of the [^123I]-CLINME, the rats were sacrificed by CO2 administration followed by cervical fracture. […] Samples of organs and tissues were weighed and the radioactivity was measured using an automated γ-counter. The percent of injected dose (%ID) was calculated by comparison to a diluted standard solution derived from the initial injected sample. Radioactivity concentrations were expressed as percent of injected dose per gram of wet tissue (% ID/g).

TSPO [5] = target: T1, TSPO; assay: In vitro autoradiography with [^125I]-CLINME on lesioned brain tissue; type: binding, SD rats; set-up: from tissue; host or cells: male Sprague-Dawley rats: peripheral organs and brain in vivo; AMPA-lesioned striatum; brain sections; settings: autoradiography, 16 nM [^125I]-CLINME

Ro 5-4864
reduction of uptake of [^123I]-CLINME in the blood (TSPO [1]): not significant | decrease of [^123I]-CLINME uptake in the heart (TSPO [1]; vs controls): 77% | decrease of [^123I]-CLINME uptake in the kidney (TSPO [1]; vs controls): 68% | decrease of [^123I]-CLINME uptake in the lungs (TSPO [1]; vs controls): 62% | decrease of [^123I]-CLINME uptake in the olfactory bulbs (TSPO [1]; vs controls): nonsignificant reduction | decrease of [^123I]-CLINME uptake in the remainder of the brain (TSPO [1]; vs controls): 23% | increase of [^123I]-CLINME concentration in the adrenals (TSPO [1]; vs controls): 73%

CCN(C)C(=O)Cc1c(-c2ccc([123I])cc2)nc2ccc(Cl)cn12 [[^123I]-CLINME]
mean ratio ± SD (ipsilateral : contralateral) striatum uptake, SPECT (TSPO [2]; 60 min p.i.): 2.2 and 2.18 ± 0.89 | mean ratio ± SD (ipsilateral : contralateral) striatum uptake, SPECT (TSPO [2]; 120 min p.i.): 1.86 ± 0.51 | unchanged radiotracer in brain tissue [3]: more than 95% | unchanged tracer in extracted activity, plasma ([3]; 15 min p.i.): 15% | unchanged tracer in extracted activity, plasma ([3]; 1 h p.i.): 5% | unchanged tracer in extracted activity, plasma ([3]; 3 h p.i.): 2% | unchanged [^123I]-CLINME in extractable radioactivity, adrenals, kidney, and heart ([3]; constant over the three hours studied): more than 95% | Biodistribution, Adrenals ([4]; 5 min p.i.): 2.89 ± 0.48 %ID/g | Biodistribution, Blood ([4]; 5 min p.i.): 0.18 ± 0.02 %ID/g | Biodistribution, Heart ([4]; 5 min p.i.): 3.28 ± 0.30 %ID/g | Biodistribution, Kidney ([4]; 5 min p.i.): 1.82 ± 0.20 %ID/g | Biodistribution, Liver ([4]; 5 min p.i.): 0.70 ± 0.10 %ID/g | Biodistribution, Lungs ([4]; 5 min p.i.): 7.88 ± 0.62 %ID/g | Biodistribution, Olfactory bulbs ([4]; 5 min p.i.): 0.38 ± 0.03 %ID/g | Biodistribution, Spleen ([4]; 5 min p.i.): 2.00 ± 0.55 %ID/g | Biodistribution, Thyroid ([4]; 5 min p.i.): 4.62 ± 2.17 %ID/g | Biodistribution, Brain ([4]; 5 min p.i.): 0.20 ± 0.02 %ID/g | Biodistribution, Adrenals ([4]; 15 min p.i.): 4.71 ± 0.26 %ID/g | Biodistribution, Blood ([4]; 15 min p.i.): 0.09 ± 0.01 %ID/g | Biodistribution, Heart ([4]; 15 min p.i.): 3.53 ± 0.23 %ID/g | Biodistribution, Kidney ([4]; 15 min p.i.): 1.75 ± 0.07 %ID/g | Biodistribution, Liver ([4]; 15 min p.i.): 0.68 ± 0.07 %ID/g | Biodistribution, Lungs ([4]; 15 min p.i.): 3.53 ± 0.44 %ID/g | Biodistribution, Olfactory bulbs ([4]; 15 min p.i.): 0.28 ± 0.04 %ID/g | Biodistribution, Spleen ([4]; 15 min p.i.): 2.65 ± 0.40 %ID/g | Biodistribution, Thyroid ([4]; 15 min p.i.): 5.62 ± 1.24 %ID/g | Biodistribution, Brain ([4]; 15 min p.i.): 0.10 ± 0.01 %ID/g | Biodistribution, Adrenals ([4]; 30 min p.i.): 7.55 ± 1.38 %ID/g | Biodistribution, Blood ([4]; 30 min p.i.): 0.08 ± 0.01 %ID/g | Biodistribution, Heart ([4]; 30 min p.i.): 3.32 ± 0.31 %ID/g | Biodistribution, Kidney ([4]; 30 min p.i.): 1.78 ± 0.18 %ID/g | Biodistribution, Liver ([4]; 30 min p.i.): 0.51 ± 0.07 %ID/g | Biodistribution, Lungs ([4]; 30 min p.i.): 2.45 ± 0.30 %ID/g | Biodistribution, Olfactory bulbs ([4]; 30 min p.i.): 0.34 ± 0.01 %ID/g | Biodistribution, Spleen ([4]; 30 min p.i.): 2.21 ± 0.15 %ID/g | Biodistribution, Thyroid ([4]; 30 min p.i.): 7.37 ± 2.14 %ID/g | Biodistribution, Brain ([4]; 30 min p.i.): 0.08 ± 0.00 %ID/g | Biodistribution, Adrenals ([4]; 1 hour p.i.): 6.77 ± 0.54 %ID/g | Biodistribution, Blood ([4]; 1 hour p.i.): 0.06 ± 0.00 %ID/g | Biodistribution, Kidney ([4]; 1 hour p.i.): 1.16 ± 0.18 %ID/g | Biodistribution, Liver ([4]; 1 hour p.i.): 0.42 ± 0.07 %ID/g | Biodistribution, Lungs ([4]; 1 hour p.i.): 1.68 ± 0.10 %ID/g | Biodistribution, Olfactory bulbs ([4]; 1 hour p.i.): 0.26 ± 0.05 %ID/g | Biodistribution, Spleen ([4]; 1 hour p.i.): 1.76 ± 0.12 %ID/g | Biodistribution, Thyroid ([4]; 1 hour p.i.): 6.46 ± 2.26 %ID/g | Biodistribution, Brain ([4]; 1 hour p.i.): 0.06 ± 0.01 %ID/g | Biodistribution, Adrenals ([4]; 3 hours p.i.): 6.65 ± 0.56 %ID/g | Biodistribution, Blood ([4]; 3 hours p.i.): 0.04 ± 0.00 %ID/g | Biodistribution, Heart ([4]; 3 hours p.i.): 1.28 ± 0.13 %ID/g | Biodistribution, Kidney ([4]; 3 hours p.i.): 0.70 ± 0.05 %ID/g | Biodistribution, Liver ([4]; 3 hours p.i.): 0.23 ± 0.01 %ID/g | Biodistribution, Lungs ([4]; 3 hours p.i.): 0.95 ± 0.12 %ID/g | Biodistribution, Olfactory bulbs ([4]; 3 hours p.i.): 0.25 ± 0.01 %ID/g | Biodistribution, Spleen ([4]; 3 hours p.i.): 1.02 ± 0.14 %ID/g | Biodistribution, Thyroid ([4]; 3 hours p.i.): 3.41 ± 1.10 %ID/g | Biodistribution, Brain ([4]; 3 hours p.i.): 0.03 ± 0.00 %ID/g | Biodistribution, Adrenals ([4]; 6 hours p.i.): 8.34 ± 0.71 %ID/g | Biodistribution, Blood ([4]; 6 hours p.i.): 0.03 ± 0.00 %ID/g | Biodistribution, Heart ([4]; 6 hours p.i.): 0.72 ± 0.14 %ID/g | Biodistribution, Kidney ([4]; 6 hours p.i.): 0.51 ± 0.09 %ID/g | Biodistribution, Liver ([4]; 6 hours p.i.): 0.21 ± 0.05 %ID/g | Biodistribution, Lungs ([4]; 6 hours p.i.): 0.68 ± 0.08 %ID/g | Biodistribution, Olfactory bulbs ([4]; 6 hours p.i.): 0.17 ± 0.05 %ID/g | Biodistribution, Spleen ([4]; 6 hours p.i.): 0.67 ± 0.09 %ID/g | Biodistribution, Thyroid ([4]; 6 hours p.i.): 4.11 ± 1.15 %ID/g | Biodistribution, Brain ([4]; 6 hours p.i.): 0.02 ± 0.00 %ID/g | ratio of uptake olfactory bulbs to blood ([4]; rats): 6 | plateau of activity in the adrenals ([4]; rats, after 30 min to 6 h p.i.): ≈ 7.5 % ID/g | peak activity in heart ([4]; rats, at 5 or 15 min p.i.): 3.5 % ID/g | peak activity in kidney ([4]; rats, at 5 or 15 min p.i.): 1.8 % ID/g | peak activity in liver ([4]; rats, at 5 or 15 min p.i.): 0.7 % ID/g | peak activity in lung ([4]; rats, at 5 or 15 min p.i.): 7.9 % ID/g | peak activity in spleen ([4]; rats, at 5 or 15 min p.i.): 2.7 % ID/g | ratio of uptake olfactory bulbs versus remainder of the brain ([4]; rats, at 5 min): 2 | uptake in the thyroid ([4]; rats, at 3 h, constant till 6 h): 4% | activity in liver, spleen, kidney, heart, and lung ([4]; rats, at 6 h): less than 0.7 % ID/g | ratio of uptake olfactory bulbs versus remainder of the brain ([4]; rats, at 6 h): 8 | uptake in the thyroid ([4]; rats, increase from 5 min to 1 h): 4–7% | concentration in blood ([4]; rats, throughout the time of measurement): < 0.18 % ID/g

CCN(C)C(=O)Cc1c(-c2ccc([125I])cc2)nc2ccc(Cl)cn12 [[^125I]-CLINME]
radioligand binding in the lesioned striatum compared to the contralateral one (TSPO [5]): significantly increased
